Assay results as given in patent US9439876B2, “Method of treating microbial infections” (priority 2014, dated 2016).
Entries after “also recorded” stand apart in the source; their conditions may differ.

What was measured:
Format in all cases: cell-based
[1] = system: Candida albicans wild type strain SN250; experiment: Screen for inhibition of Candida albicans lawn formation (halo) on solid YPD plates; details: for inhibition of C. albicans growth (halo formation) on YPD plates: 5 μl of 10 mM drug on fungal lawn, 25° C. and 37° C.
Experimental: (§1) C. albicans was plated on solid YPD and serum plates, and 5 μl of each 10 mM drug was placed on top of the fungal lawn. The effect of exposure to each of the compounds from the library was assayed for its ability to inhibit C. albicans growth, as well as ability to form a halo within the fungal lawn. […] (FIG. 1A).
(§2) High-throughput Screening Assay: The sensitivity of C. albicans against compounds was assessed by a high-throughput chemical screen. 200 μl of C. albicans overnight culture were spread onto petri dishes containing either YPD or fetal bovine serum. 5 μl of each drug was placed directly on the agar surface using a multichannel pipette and slight contact of the tip to the agar made to leave an impression to facilitate later analysis. Compounds that were replicated were done on petri dishes, following the same protocol in at least five independent experiments. For the replication studies, only a single drug was placed per plate. The plates were incubated at either 25° C. or 37° C.

[2] = system: Candida albicans wild type strain SN250; experiment: Screen for inhibition of Candida albicans lawn formation (halo) on solid serum (FBS agar) plates; details: 5 μl of 10 mM drug on fungal lawn, 25° C. and 37° C.
Experimental: as §1
Media and Growth Conditions: C. albicans strains were cultured with 5 ml of YPD (1% yeast extract, 2% peptone, 2% dextrose, pH 6) medium at 30° C. overnight. Bacterial cells were cultured in LB (Luria-Bertani) medium consisting of 5 g Bacto-Tryptone, 2.5 g Bacto-Yeast Extract, 5 g NaCl and 7.5 g of 2% agar if preparing solid plates. The centrifuge tubes were incubated at 37° C. and left shaking overnight at 150 rpm. Fetal bovine serum was incorporated into agar. Fetal bovine serum was preheated in a water bath set at 65° C. […] The agar solution for the serum mixture consisted of 16 g agar, which was then brought up to 300 ml with nanopure water. The agar solution was then autoclaved at 120° C. for 45 minutes. The agar and serum mixtures were then amalgamated while in their isothermal states.
as §2

[3] = system: Candida albicans knock-out mutants; experiment: Genotypic mutant screening against Octodrine (three knockout libraries, 908 mutant strains); details: 5 μl of 10 mM drug on YPD plates, 30° C. overnight
Experimental: In order to identify C. albicans proteins and signaling pathways that mediate the lethality of Octodrine, three C. albicans knockout libraries were screened for any alterations in sensitivity to 10 mM Octodrine—collectively consisting of 908 mutant strains each strain lacking one of the virulence genes. These libraries consisted of 647 mutant strains lacking one of the essential virulence genes (Noble, S M et al., 2010, Nat Genet 42:590-598, the entire content of which is herein incorporated by reference); 96 cell wall protein mutants (Norice, C T et al., 2007, Eukaryot Cell 6:2046-2055, the entire content of which is herein incorporated by reference); and 165 transcription factors mutants (Nobile, C J et al., 2005, Curr Biol 15:1150-1155, the entire content of which is herein incorporated by reference).
Genotypic Mutant Screening Against Octodrine: Each C. albicans knockout strain was cultured in individual wells of a 96 well plate in 100 μl of YPD media overnight at 30° C. 5 μl of each Candida knock-out overnight culture was spotted onto a YPD solid plate using a multichannel pipette. The cells were then left to absorb into the YPD plates for 1 hour at 25° C. Using a multichannel pipette, 5 μl of Octodrine 10 mM was spotted directly on top of the C. albicans cells. The plates were then placed in an incubator set at 30° C. and left overnight. […]

[4] = system: Escherichia coli strain C600; experiment: Halo formation in bacterial lawn, gram-negative bacteria; details: 5 μl of neat form (3 mg of undiluted)
Excerpt: (§3) In order to test if Octodrine kills microorganisms by targeting their non-protein cellular components, Escherichia coli and Bacillus cereus, gram-negative and gram-positive bacteria respectively, were exposed to Octodrine.
(§4) Candida albicans and Bacterial Strains: The Candida albicans wild type strain SN250 was used for the high-throughput screening experiments. The bacterial strain consisted of Bacillus cereus strain 10987 and Escherichia coli strain C600. The genotypic screen for mutant sensitivity to Octodrine was tested with three C. albicans libraries that were previously created as disclosed in Noble, 2010, supra; Rauceo, J M et al., 2008, Mol Biol Cell 19:2741-2751; and Homann, O R et al., 2009, PLoS Genet 5:e1000783, the entire contents of all of which are herein incorporated by reference.
(§5) Media and Growth Conditions: C. albicans strains were cultured with 5 ml of YPD (1% yeast extract, 2% peptone, 2% dextrose, pH 6) medium at 30° C. overnight. Bacterial cells were cultured in LB (Luria-Bertani) medium consisting of 5 g Bacto-Tryptone, 2.5 g Bacto-Yeast Extract, 5 g NaCl and 7.5 g of 2% agar if preparing solid plates. The centrifuge tubes were incubated at 37° C. and left shaking overnight at 150 rpm. Fetal bovine serum was incorporated into agar. Fetal bovine serum was preheated in a water bath set at 65° C. […]

[5] = system: Bacillus cereus strain 10987; experiment: Halo formation in bacterial lawn, gram-positive bacteria; details: 5 μl of neat form (3 mg of undiluted)
Excerpt: as §3, §4, §5

[6] = system: RAW264.7 mouse macrophage cells; experiment: Mammalian cell survival assay (MTT); details: RAW264.7, 1 μl of 10 mM drug in 100 μl media with two-fold dilutions, 24 hours
Experimental: Mammalian cell culture, drug treatment, and survival assay: RAW264.7 mouse macrophage cells were maintained in DMEM (Dulbecco's Modified Eagle Medium, Sigma-Aldrich) supplemented with 10% FBS (fetal bovine serum, Bioexpress) and 100 μg/mL penicillin and 100 μg/mL streptomycin. RAW264.7 cells (10,000 per well) were seeded in 96-well plates (100 μL/well) 24 hours before the assay. During the assay, 1 μl of 10 mM drug was added to 100 μl of cell-containing media. Two-fold serial dilutions of the media were performed. Cells were treated with drugs for 24 hours, and determination of cell viability by 3-(4,5-dimethylthiazol-2-yl)-2,5-diphenyltetrazolium bromide (MTT) assay was performed as described in Lu et al., 2004, Proc Natl Acad Sci USA 101:17246-17251, the entire content of which is herein incorporated by reference.
Each data point shown in the figure for MTT assays represents the average of results from at least two wells in each of at least two separate experiments. Cell viability is shown as the percentage of survivors obtained relative to untreated cells (100%).

[7] = system: Candida albicans wild type strain SN250; experiment: Screen for inhibition of Candida albicans lawn formation (halo) on solid serum (FBS agar) plates; details: 5 μl of undiluted (neat) drug, approximately 3 mg, middle of serum-grown lawn

| Compound | inhibition of C. albicans growth (halo formation) on YPD plates [1] | inhibition of C. albicans growth (halo formation) on serum plates [2] | also measured |
| --- | --- | --- | --- |
| O=C1C2CC=CCC2C(=O)N1SC(Cl)(Cl)Cl (stereo not drawn) [Captan] | strong inhibition | – | – |
| Cc1ccc2c(Cl)cc(Cl)c(O)c2n1 [Chlorquinaldol] | – | strongest inhibition | – |
| Clc1ccccc1C(c1ccccc1)(c1ccccc1)n1ccnc1 [Clotrimazole] | strong inhibition | weak inhibition | – |
| OC(Cn1cncn1)(Cn1cncn1)c1ccc(F)cc1F [Fluconazole] | strong inhibition | weak inhibition | inhibition of C. albicans growth (halo formation) on YPD plates ([1]; listed as fluconazole): effective inhibitor; also recorded: prominent halos; effectiveness at forming halos at 37° C. compared to 25° C. ([1]; 5 μl of 10 mM drug, 37° C. versus 25° C.): diminished effectiveness |
| CC(C)n1c(/C=C/C(O)CC(O)CC(=O)O)c(-c2ccc(F)cc2)c2ccccc21 (stereo not drawn) [Fluvastatin] | – | failed to inhibit | – |
| Clc1ccc(COC(Cn2ccnc2)c2ccc(Cl)cc2Cl)c(Cl)c1 (stereo not drawn) [Miconazole] | strong inhibition | weak inhibition | – |
| COc1c(C)c2c(c(O)c1C/C=C(\C)CCC(=O)O)C(=O)OC2 [Mycophenolic acid] | very strong inhibition | failed to inhibit | – |
| O=[N+]([O-])c1ccc(/C=N/O)o1 [Nifuroxime] | – | weaker inhibition | – |
| O=[N+]([O-])c1ccc(O)c2ncccc12 [Nitroxoline] | – | weaker inhibition | – |
| CCCCCCCC(=O)O [Octanoic acid] | – | weaker inhibition | – |
| CC(C)CCCC(C)N (stereo not drawn) [Octodrine, 6-methylheptan-2-amine] | moderate-to-weak anti-Candida activity and mild | strong fungal growth inhibition; also recorded: prominent ability to kill; also recorded: most prominent drug that killed C. albicans in serum; also recorded: best Candida growth inhibition | sensitivity of C. albicans knockout mutants relative to wild type [3]: as sensitive as their wild type strains; also recorded: no C. albicans mutants (FIG. 3) showed a decrease in sensitivity; halo formation in E. coli lawn [4]: formed prominent halos; also recorded: capable of killing; halo formation in B. cereus lawn [5]: formed prominent halos; also recorded: capable of killing; survival of mouse macrophages (cell viability relative to untreated cells) [6]: the same as to the DMSO alone; also recorded: did not affect the sensitivity; elimination of serum-grown Candida lawn by undiluted drug [7]: sufficient to eliminate most of the whole fungal lawn |
| [O-][n+]1ccccc1[S-].[O-][n+]1ccccc1[S-].[Zn+2] [Pyrithione Zinc] | strong inhibition | weak inhibition | – |
| Antimycin A | strong inhibition | weak inhibition | – |
